Assay results as given in patent US20180265463A1, “Vitamin D3 Derivatives and Pharmaceutical Use Thereof” (Kyoto University, priority 2014, published 2018).
“Also recorded” adds a separate entry of the source. Where two headings read alike, the source gives them in different places.

Key:
Format in all cases: cell-based, Chinese hamster
[1] = system: SREBP-2 fragment fused to PLAP (PLAP-BP2513-1141); assay: PLAP-BP assay (secreted alkaline phosphatase reporter of SREBP translocation and processing); conditions: VD derivatives 10 μM, 20 h, CHO-K1 co-transfected with PLAP-BP2 and SCAP; average of two experiments
[2] = system: SREBP; assay: SRE-driven luciferase reporter assay of SREBP activation; conditions: luciferase reporter in CHO-K1 cells, lipid-depleted medium, 20-24 h, normalized to β-galactosidase, averages of three independent experiments, read-out: IC50 (μM), inhibitory effect on the activation of SREBP
Procedure: The transfected cells were treated with DMSO alone, sterols (10 μg/mL cholesterol and 1.0 μg/mL 25-HC), or varied concentrations of 25(OH)D in a medium containing lipid-free serum. Luciferase activity was measured after 20 h incubation, and the data were normalized to β-galactosidase activity. Values are the mean±SD of three independent experiments.
The molecules in a chemical library which consists of 280 endogenous lipid related molecules were screened for their ability to inhibit the expression of a luciferase reporter gene. In this gene, three repeats of sterol regulatory elements (SREs) control expression of luciferase. Lipid depletion activates SREBPs, which bind to the SRE domain and work as transcription factors to express luciferase. The SREBP-responsive reporter construct was co-transfected into Chinese hamster ovary K1 (CHO-K1) cells, along with a control β-galactosidase (β-gal) reporter gene. A constitutively active actin promoter in the reporter gene drives the expression of β-gal. The levels of luciferase expression from the SREBP-responsive reporter gene were normalized to the levels of β-gal expression.
CHO-K1 cells were maintained in a medium A (1:1 mixture of Ham's F-12 medium and Dulbecco's modified Eagle medium, supplemented with 100 units/mL penicillin, 100 μg/mL streptomycin sulfate, and 5% (v/v) fetal bovine serum) at 37° C. under humidified 5% CO2.
On day 0, CHO-K1 cells were added to 96-well plates at 1.0×10^4 cells per well in medium A. On day 1, the cells were co-transfected with an SRE-1-driven luciferase reporter construct (pSRE-Luc) and pAc-β-gal at a 20/1 ratio, using FuGENE(Registered trademark) HD transfection reagent (Promega), according to the manufacturer's protocol. After 8-12 h of incubation, the cells were washed with PBS buffer, then incubated in medium B containing the specific test compounds. […] After 20-24 h of incubation, the cells in each well were lysed by freeze-thaw with Reporter Lysis Buffer (Promega), and aliquots were used to measure luciferase and β-galactosidase activities. Luciferase activity was measured using the Steady-Glo(Registered trademark) Luciferase Assay System (Promega), and β-galactosidase activity was measured using the β-galactosidase Enzyme Assay System (Promega). Luciferase activity was normalized to β-galactosidase activity.

[3] = system: SREBP-2; assay: Western-blot analysis of SREBP-2 in CHO-K1 cells; conditions: 5 μM; for levels of the mature form of SREBP versus DMSO: 16 h, CHO-K1 cells (FIG. 7, FIG. 8)
Procedure: CHO-K1 cells were treated with DMSO alone or each molecule (5 μM) for 18 h. The levels of precursor and mature forms of SREBP-2 were analyzed by Western-blot. Western-blots of actin are shown in lower panel as a loading control.
CHO-K1 cells were treated with DMSO alone or each molecule (5 μM) for 16 h. The levels of precursor and mature forms of SREBP-2 were analyzed by Western-blot. Western-blots of actin are shown in lower panel as a loading control.
On day 0, CHO-K1 cells were added to 6-well plates at 3.0×10^5 cells per well in medium A. On day 1, the cells were washed with PBS, and then incubated in medium B in the absence or presence of specific test compounds (5 μM). After 16 h of incubation, the cells were washed three times with cold PBS, and lysed with a buffer A (50 mM Tris-HCl (pH 7.5), 150 mM NaCl, 1% (v/v) Nonidet P40, 0.5% (w/v) sodium deoxycholate, 8 M urea, and protease inhibitor cocktail (Nacalai)). The cell lysate were passed 16 times through a 25 G needle and centrifuged at 7,000 g at 4° C. for 10 min. The supernatants were transferred to new tubes, and the pellets were extracted with a buffer A. The resulting buffer was centrifuged at 7,000 g at 4° C. for 10 min, and the supernatants were combined to the previous ones. The resulting lysate was mixed with 0.20 volume of 6×SDS sample buffer (Nacalai) and incubated at room temperature for 30 min. The samples were separated on a 10% SDS-PAGE gel and blotted, using mouse monoclonal antibodies against SREBP-2 (IgG-7D4), SCAP (IgG-9D5), c-Myc (IgG1-MC045), and actin (AC-40). The specific bands were visualized using enhanced chemiluminescence (ECL Prime Western Blotting Detection Reagent, GE Healthcare) on an ImageQuant LAS 500 (GE Healthcare).

Row | Molecule | IC50 ([2]; Cricetulus griseus) [µM] | IC50 [2] [µM] | levels of the mature form of SREBP versus DMSO [3] | also measured
1 | C=C1/C(=C\C=C2/CCC[C@]3(C)[C@@H]([C@H](C)CCCC(C)(C)O)CC[C@@H]23)C[C@@H](O)C[C@@H]1O [1,25(OH)2D, 1α,25-dihydroxyvitamin D3] |  |  |  | secretion of PLAP [1]: inhibited the secretion of PLAP to a greater extent than sterol; also recorded: caused a greater decrease in PLAP secretion than did cholesterol
2 | C[C@H](CCCC(C)(C)O)[C@H]1CC[C@H]2/C(=C/C=C3/C[C@@H](O)C[C@H](F)C3)CCC[C@]12C [Compound 98, 19-Nor 1α-F-3β-OH VD3] | 1.59 |  |  | 
3 | 19-Nor 1β-NH(p-SCF3Bz)-3β-OH VD3 [Compound 74] |  | 1.11 |  | 
4 | C[C@H](CCCC(C)(C)O)[C@H]1CC[C@H]2/C(=C/C=C3/C[C@@H](O)C[C@H](NS(C)(=O)=O)C3)CCC[C@]12C [Compound 89, 19-Nor 1α-NHMs-3β-OH VD3] | 3.34 |  |  | 
5 | 1α-NH(p-CF3Bz) VD3 [Compound 38] |  | 1.76 | lower than that of DMSO | 
6 | C[C@H](CCCC(C)(C)O)[C@H]1CC[C@H]2/C(=C/C=C3/C[C@@H](O)C[C@H](N4C(=O)c5ccccc5C4=O)C3)CCC[C@]12C [Compound 87, 19-Nor 1α-NPhth-3β-OH VD3] | 0.52 |  |  | 
7 | Cc1ccc(S(=O)(=O)N[C@@H]2C/C(=C\C=C3/CCC[C@]4(C)[C@@H]([C@H](C)CCCC(C)(C)O)CC[C@@H]34)C[C@@H](O)C2)cc1 [Compound 85, 19-Nor 1α-NHTs-3β-OH VD3] | 0.52 |  |  | 
8 | C[C@H](CCCC(C)(C)O)[C@H]1CC[C@H]2/C(=C/C=C3/C[C@@H](O)C[C@H](NS(=O)(=O)c4cccc5c(N(C)C)cccc45)C3)CCC[C@]12C [Compound 91, 19-Nor 1α-NHDns-3β-OH VD3] | 1.17 |  |  | 
9 | C[C@H](CCCC(C)(C)O)[C@H]1CC[C@H]2[C@@H]3CC=C4C[C@@H](O)CC[C@]4(C)[C@H]3CC[C@]12C [Compound 25-HC, 25-hydroxycholesterol, reference compound] |  |  |  | level of mature form of SREBP ([3]; 18 h, CHO-K1 cells (FIG. 3)): disappeared; level of precursor form of SREBP ([3]; 18 h, CHO-K1 cells (FIG. 3)): accumulated
10 | 1α-OH-3α-NHPhth VD3 [Compound 77] |  | 1.55 |  | 
11 | 19-Nor 1β-NPhth-3β-OH VD3 [Compound 76] |  | 2.05 |  | 
12 | C=C1C(=CC=C2CCCC3(C)C2CCC3C(C)CCCC(C)C)CC(O)CC1NC(=O)OC(C)(C)C (stereo not drawn) [Compound 18a, 1α-NHBoc VD3] |  | 0.82 |  | 
13 | C=C1C(=CC=C2CCCC3(C)C2CCC3C(C)CCCC(C)C)CC(O)CC1NC(C)=O (stereo not drawn) [Compound 22a, 1α-NHAc VD3] |  | 3.24 | lower than that of DMSO | 
14 | C=C1C(=CC=C2CCCC3(C)C2CCC3C(C)CCCC(C)C)CC(O)CC1NC(C)=O (stereo not drawn) [Compound 22b, 1β-NHAc VD3] |  | 3.56 | lower than that of DMSO | 
15 | C=C1/C(=C\C=C2/CCC[C@]3(C)[C@@H]([C@H](C)CCCC(C)(C)O)CC[C@@H]23)C[C@@H](O)C[C@@H]1NCC1CC1 [Compound 49, 1α-NH(Cyclopropylmethyl) VD3] | 16 |  |  | 
16 | C=C1C(=CC=C2CCCC3(C)C2CCC3C(C)CCCC(C)C)CC(O)CC1NS(=O)(=O)c1ccc(C)cc1 (stereo not drawn) [Compound 32, 1α-NHTs VD3] |  | 0.61 | lower than that of DMSO | 
17 | C=C1C(=CC=C2CCCC3(C)C2CCC3C(C)CCCC(C)C)CC(O)CC1NC(=O)OCc1ccccc1 (stereo not drawn) [Compound 36, 1α-NHCbz VD3] |  | 1.38 | lower than that of DMSO | 
18 | C[C@H](CCCC(C)(C)O)[C@H]1CC[C@H]2/C(=C/C=C3/C[C@@H](O)C[C@H](NC(=O)c4ccc(SC(F)(F)F)cc4)C3)CCC[C@]12C [Compound 86, 19-Nor 1α-NH(p-SCF3Bz)-3β-OH VD3] | 0.53 |  |  | 
19 | C[C@H](CCCC(C)(C)O)[C@H]1CC[C@H]2/C(=C/C=C3/C[C@@H](O)C[C@H](NC(=O)C(F)(F)F)C3)CCC[C@]12C [Compound 90, 19-Nor 1α-NH(Trifluoroacetyl)-3β-OH VD3] | 0.83 |  |  | 
20 | 1α-OH-3α-NHTs VD3 [Compound 73] |  | 2.71 |  | 
21 | C=C1/C(=C\C=C2/CCC[C@]3(C)[C@@H]([C@H](C)CCCC(C)(C)O)CC[C@@H]23)C[C@@H](O)C[C@@H]1NC(=O)c1ccc(Br)cc1 [Compound 39, 1α-NH(p-BrBz) VD3] | 0.97 |  | lower than that of DMSO | 
22 | 1α-NHNs VD3 [Compound 28] |  | 0.68 | lower than that of DMSO | 
23 | 19-Nor 1β-NHTs-3β-OH VD3 [Compound 72] |  | 1.69 |  | 
